From ChEMBL document CHEMBL1201862, “PubChem BioAssay data set” (2004)
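Where inhibition never reached the appropriate level, the endpoint shown equals the highest concentration tested. Otherwise, values were interpolated linearly from a five-concentration, 48-hour dose response in 96-well plates. The concentration for 50% growth inhibition is given as GI50.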 Calls of active or inactive are those of the source. Rule as the data show it: active = GI50 up to about 1.1 µM and inactive = higher.

What was measured:
Test in all cases: DTP human tumour cell line panel, 48 h
OVCAR-3 = test system: OVCAR-3
HL-60 = test system: HL-60
HOP-92 = test system: HOP-92
SF-295 = test system: SF-295
CAKI-1 = test system: CAKI-1
EKVX = test system: EKVX
M19-MEL = test system: M19-MEL
HCT-116 = test system: HCT-116
CCRF-CEM = test system: CCRF-CEM
TK-10 = test system: TK-10
SNB-78 = test system: SNB-78
K562 = test system: K562
A498 = test system: A498
MCF7 = test system: MCF7
SN12C = test system: SN12C
RXF 631 = test system: RXF 631
SF-539 = test system: SF-539
SNB-75 = test system: SNB-75
BT-549 = test system: BT-549
DLD-1 = test system: DLD-1
U-251 = test system: U-251
MOLT-4 = test system: MOLT-4
T47D = test system: T47D
KM12 = test system: KM12
SK-MEL-28 = test system: SK-MEL-28
Malme-3M = test system: Malme-3M
786-0 = test system: 786-0
HT-29 = test system: HT-29
SK-MEL-5 = test system: SK-MEL-5
DU-145 = test system: DU-145
SF-268 = test system: SF-268
RXF 393 = test system: RXF 393
NCI/ADR-RES = test system: NCI/ADR-RES
NCI-H23 = test system: NCI-H23
XF498 = test system: XF498
HOP-18 = test system: HOP-18
LOX IMVI = test system: LOX IMVI
Hs-578T = test system: Hs-578T
DMS-273 = test system: DMS-273
OVCAR-8 = test system: OVCAR-8
OVCAR-4 = test system: OVCAR-4
SNB-19 = test system: SNB-19
MDA-MB-435 = test system: MDA-MB-435
NCI-H522 = test system: NCI-H522
DMS-114 = test system: DMS-114
IGROV-1 = test system: IGROV-1
SK-OV-3 = test system: SK-OV-3
HCC 2998 = test system: HCC 2998
NCI-H226 = test system: NCI-H226
COLO 205 = test system: COLO 205
LXFL 529 = test system: LXFL 529
KM-20L2 = test system: KM-20L2
HOP-62 = test system: HOP-62
A549 = test system: A549
M14 = test system: M14
UACC-62 = test system: UACC-62
PC-3 = test system: PC-3
UO-31 = test system: UO-31
UACC-257 = test system: UACC-257
OVCAR-5 = test system: OVCAR-5
SW-620 = test system: SW-620
SR = test system: SR
SK-MEL-2 = test system: SK-MEL-2
NCI-H460 = test system: NCI-H460
HCT-15 = test system: HCT-15
ACHN = test system: ACHN
RPMI-8226 = test system: RPMI-8226
MDA-MB-231 = test system: MDA-MB-231

Compound: COc1ccc(/C=C2\CCC(CN(C)C)C2=O)cc1OC (stereo not drawn)
- GI50 (OVCAR-3): 7.21 µM (inactive)
- GI50 (HL-60): 2.07 µM (inactive)
- GI50 (HOP-92): 5.69 µM (inactive)
- GI50 (SF-295): 15.1 µM (inactive)
- GI50 (CAKI-1): 4.8 µM (inactive)
- GI50 (EKVX): 16.1 µM (inactive)
- GI50 (M19-MEL): 7 µM (inactive)
- GI50 (HCT-116): 2.3 µM (inactive)
- GI50 (CCRF-CEM): 1.32 µM (inactive)
- GI50 (TK-10): 7.14 µM (inactive)
- GI50 (SNB-78): 17.5 µM (inactive)
- GI50 (K562): 1.17 µM (inactive)
- GI50 (A498): 14.6 µM (inactive)
- GI50 (MCF7): 2.56 µM (inactive)
- GI50 (SN12C): 3.43 µM (inactive)
- GI50 (RXF 631): 6.84 µM (inactive)
- GI50 (SF-539): 10.5 µM (inactive)
- GI50 (SNB-75): 8.49 µM (inactive)
- GI50 (BT-549): 5.43 µM (inactive)
- GI50 (DLD-1): 2.69 µM (inactive)
- GI50 (U-251): 16.1 µM (inactive)
- GI50 (MOLT-4): 1.29 µM (inactive)
- GI50 (T47D): 5.41 µM (inactive)
- GI50 (KM12): 2.37 µM (inactive)
- GI50 (SK-MEL-28): 5.48 µM (inactive)
- GI50 (Malme-3M): 3.95 µM (inactive)
- GI50 (786-0): 3.34 µM (inactive)
- GI50 (HT-29): 5.61 µM (inactive)
- GI50 (SK-MEL-5): 10.1 µM (inactive)
- GI50 (DU-145): 8.24 µM (inactive)
- GI50 (SF-268): 10.7 µM (inactive)
- GI50 (RXF 393): 1.94 µM (inactive)
- GI50 (NCI/ADR-RES): 2.49 µM (inactive)
- GI50 (NCI-H23): 7.82 µM (inactive)
- GI50 (XF498): 13.5 µM (inactive)
- GI50 (HOP-18): 20.8 µM (inactive)
- GI50 (LOX IMVI): 1.91 µM (inactive)
- GI50 (Hs-578T): 4.3 µM (inactive)
- GI50 (DMS-273): 14.4 µM (inactive)
- GI50 (OVCAR-8): 2.9 µM (inactive)
- GI50 (OVCAR-4): 7.64 µM (inactive)
- GI50 (SNB-19): 16.5 µM (inactive)
- GI50 (MDA-MB-435): 5.55 µM (inactive)
- GI50 (NCI-H522): 1.95 µM (inactive)
- GI50 (DMS-114): 12.5 µM (inactive)
- GI50 (IGROV-1): 13.1 µM (inactive)
- GI50 (SK-OV-3): 19.1 µM (inactive)
- GI50 (HCC 2998): 5.83 µM (inactive)
- GI50 (NCI-H226): 13.2 µM (inactive)
- GI50 (COLO 205): 2.07 µM (inactive)
- GI50 (LXFL 529): 2.43 µM (inactive)
- GI50 (KM-20L2): 12.8 µM (inactive)
- GI50 (HOP-62): 18.8 µM (inactive)
- GI50 (A549): 17.2 µM (inactive)
- GI50 (M14): 6.87 µM (inactive)
- GI50 (UACC-62): 5.46 µM (inactive)
- GI50 (PC-3): 7.55 µM (inactive)
- GI50 (UO-31): 11.5 µM (inactive)
- GI50 (UACC-257): 5.41 µM (inactive)
- GI50 (OVCAR-5): 14.8 µM (inactive)
- GI50 (SW-620): 1.82 µM (inactive)
- GI50 (SR): 1.86 µM (inactive)
- GI50 (SK-MEL-2): 11.5 µM (inactive)
- GI50 (NCI-H460): 11.1 µM (inactive)
- GI50 (HCT-15): 2.9 µM
- GI50 (ACHN): 7 µM (inactive)
- GI50 (RPMI-8226): 1.28 µM (inactive)
- GI50 (MDA-MB-231): 2.35 µM (inactive)
